Experimental data: ChEMBL document CHEMBL1201862, “PubChem BioAssay data set” (2004)
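These data come from cells grown in 96-well plates and exposed to compound for 48 hours at five concentrations. The concentration for 50% growth inhibition is given as GI50.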 Calls of active or inactive are those of the source. Rule as the data show it: active = GI50 up to about 1.1 µM and inactive = higher.

Columns and labels:
Assay in all cases: inhibition of tumour cell growth, NCI panel, 48 h
MDA-MB-435 = tested on: MDA-MB-435
RPMI-8226 = tested on: RPMI-8226
PC-3 = tested on: PC-3
BT-549 = tested on: BT-549
ACHN = tested on: ACHN
EKVX = tested on: EKVX
HT-29 = tested on: HT-29
SK-MEL-28 = tested on: SK-MEL-28
OVCAR-3 = tested on: OVCAR-3
UO-31 = tested on: UO-31
COLO 205 = tested on: COLO 205
MDA-N = tested on: MDA-N
HOP-62 = tested on: HOP-62
DU-145 = tested on: DU-145
UACC-257 = tested on: UACC-257
SF-295 = tested on: SF-295
NCI-H522 = tested on: NCI-H522
NCI-H23 = tested on: NCI-H23
NCI/ADR-RES = tested on: NCI/ADR-RES
Hs-578T = tested on: Hs-578T
T47D = tested on: T47D
MCF7 = tested on: MCF7
SF-539 = tested on: SF-539
UACC-62 = tested on: UACC-62
OVCAR-4 = tested on: OVCAR-4
U-251 = tested on: U-251
K562 = tested on: K562
OVCAR-8 = tested on: OVCAR-8
SNB-75 = tested on: SNB-75
SR = tested on: SR
SK-OV-3 = tested on: SK-OV-3
HL-60 = tested on: HL-60
TK-10 = tested on: TK-10
SF-268 = tested on: SF-268
LOX IMVI = tested on: LOX IMVI
SK-MEL-2 = tested on: SK-MEL-2
786-0 = tested on: 786-0
MOLT-4 = tested on: MOLT-4
HOP-92 = tested on: HOP-92
IGROV-1 = tested on: IGROV-1
CCRF-CEM = tested on: CCRF-CEM
NCI-H226 = tested on: NCI-H226
SK-MEL-5 = tested on: SK-MEL-5
SW-620 = tested on: SW-620
HCT-116 = tested on: HCT-116
NCI-H460 = tested on: NCI-H460
OVCAR-5 = tested on: OVCAR-5
CAKI-1 = tested on: CAKI-1
RXF 393 = tested on: RXF 393
HCT-15 = tested on: HCT-15
SNB-19 = tested on: SNB-19
A549 = tested on: A549
KM12 = tested on: KM12
MDA-MB-231 = tested on: MDA-MB-231
M14 = tested on: M14

What does the source list for `CCSc1nnc2c(-c3ccccc3)n[nH]c2n1`?
GI50 (MDA-MB-435): > 100 µM (inactive); GI50 (RPMI-8226): > 100 µM (inactive); GI50 (PC-3): > 100 µM (inactive); GI50 (BT-549): > 100 µM (inactive); GI50 (ACHN): > 100 µM (inactive); GI50 (EKVX): 16 µM (inactive); GI50 (HT-29): > 100 µM (inactive); GI50 (SK-MEL-28): > 100 µM (inactive); GI50 (OVCAR-3): > 100 µM (inactive); GI50 (UO-31): > 100 µM (inactive); GI50 (COLO 205): > 100 µM (inactive); GI50 (MDA-N): > 100 µM (inactive); GI50 (HOP-62): 59.8 µM (inactive); GI50 (DU-145): > 100 µM (inactive); GI50 (UACC-257): > 100 µM (inactive); GI50 (SF-295): 31 µM (inactive); GI50 (NCI-H522): > 100 µM (inactive); GI50 (NCI-H23): > 100 µM (inactive); GI50 (NCI/ADR-RES): > 100 µM (inactive); GI50 (Hs-578T): 30.4 µM (inactive); GI50 (T47D): > 100 µM (inactive); GI50 (MCF7): > 100 µM (inactive); GI50 (SF-539): 90.8 µM (inactive); GI50 (UACC-62): > 100 µM (inactive); GI50 (OVCAR-4): > 100 µM (inactive); GI50 (U-251): > 100 µM (inactive); GI50 (K562): > 100 µM (inactive); GI50 (OVCAR-8): 66.8 µM (inactive); GI50 (SNB-75): 27.2 µM (inactive); GI50 (SR): > 100 µM (inactive); GI50 (SK-OV-3): 44.3 µM (inactive); GI50 (HL-60): > 100 µM (inactive); GI50 (TK-10): > 100 µM (inactive); GI50 (SF-268): 49.1 µM (inactive); GI50 (LOX IMVI): > 100 µM (inactive); GI50 (SK-MEL-2): > 100 µM (inactive); GI50 (786-0): 86.7 µM (inactive); GI50 (MOLT-4): > 100 µM (inactive); GI50 (HOP-92): 37.4 µM (inactive); GI50 (IGROV-1): > 100 µM (inactive); GI50 (CCRF-CEM): 24.3 µM (inactive); GI50 (NCI-H226): > 100 µM (inactive); GI50 (SK-MEL-5): > 100 µM (inactive); GI50 (SW-620): > 100 µM (inactive); GI50 (HCT-116): > 100 µM (inactive); GI50 (NCI-H460): > 100 µM (inactive); GI50 (OVCAR-5): > 100 µM (inactive); GI50 (CAKI-1): > 100 µM (inactive); GI50 (RXF 393): > 100 µM (inactive); GI50 (HCT-15): > 100 µM; GI50 (SNB-19): > 100 µM (inactive); GI50 (A549): > 100 µM (inactive); GI50 (KM12): > 100 µM (inactive); GI50 (MDA-MB-231): > 100 µM (inactive); GI50 (M14): > 100 µM (inactive)
